Assay [1] concerns E. coli K-12 BW25113 carrying ASKA plasmids. Description: microbe, parasite or virus in culture. To be noted: MS medium + 10 µg mL−1 CHL + 500 µM IPTG, 5 × 10^5 cells, 16–18 h, 37 °C; for MIC: Escherichia coli. In kind it is cell-based, Escherichia coli. An excerpt: Bacterial gene amplification generates extensive genetic variation that can provide drug resistance[37],[38]. As gene amplification events tend to be genetically unstable and reduce bacterial fitness, they are transient in nature. Using the ASKA library, which comprises each E. coli ORF cloned into an expression vector[40], we have conducted a global survey to evaluate whether artificially amplified genes provide resistance to any of the 14 AMPs and 11 antibiotics tested. As chloramphenicol (CHL) was used as a selection marker for the ASKA plasmid, this antibiotic was not tested in this screen. E. coli K-12 BW25113 cells were transformed with the pooled plasmids of the ASKA library, and the genetically mixed populations were exposed to increasing levels of AMP or antibiotic stresses, respectively. In all cases, the employed AMP or antibiotic dosages were above the MIC of the wild type. For each drug, we identified the MIC provided in the pooled ASKA plasmid library, and compared it to the MIC of the wild-type strain carrying the empty ASKA plasmid.
The ASKA library (a complete set of E. coli K-12 ORF archive) includes every E. coli ORF cloned into an expression vector (pCA24N)[65]. Prior to screening, the ASKA plasmid collection was pooled and transformed into E. coli K-12 BW25113 strain[66]. The plasmid pool was created by pooling an equal aliquot of cells, each carrying different members of the ASKA library, followed by plasmid miniprep. Next, the plasmid pool was electroporated into E. coli K-12 BW25113 competent cells. […] For the MICs measurements 500 000 cells were inoculated in each well which represents ~100 times coverage of each library member. […] Prior to the measurements the cell population containing the pooled overexpression library or the control strain containing the empty vector were grown in three replicates in LB medium supplemented with 20 µg/mL CHL. As the culture reached high density (i.e., OD600 > 0.8), expression of the plasmid was induced by 50 µM IPTG for 1 h. Following induction, 5 × 10^5 bacterial cells were inoculated in three replicates into each well of the 96-well plate and incubated for 16–18 h at 37 °C. Following incubation the MIC values were determined by measuring optical densities in a plate reader (Biotek Synergy).

Assay [2] relates to E. coli K-12 BW25113. Description: microbe, parasite or virus in culture. In kind it is cell-based, Escherichia coli. An excerpt:
Unless otherwise indicated, Minimal Salt (MS) medium was used in all experiments, including the laboratory evolution experiments. In line with previous, methodologically relevant laboratory evolution studies, the physical conditions (including the medium) were the same during the course of laboratory evolution and all forthcoming assays on the resulting resistant lines (e.g. MIC measurements). We previously optimized this medium for studying AMPs (1 g L^−1 (NH4)2SO4, 3 g L^−1 KH2PO4 and 7 g L^−1 K2HPO4 supplemented with 0.1 mM MgSO4, 0.54 µg mL^−1 FeCl3, 1 µg mL^−1 thiamine hydrochloride, 0.2% Casamino acids and 0.2% glucose)[19]. This medium is highly controlled and provides a reproducible environment for experimental evolution experiments. All components were obtained from Sigma-Aldrich.
MICs were determined using a standard serial broth dilution technique. Briefly, 11-step serial dilutions were prepared in 96-well microtiter plates with three replicates per strain and antimicrobial compound. Each experiment was repeated at least twice. 5 × 10^5 cells/mL were inoculated into each well, and the plates were incubated at 30 °C in case of E. coli K-12 BW25113, and its antibiotic and AMP-adapted lines, or 37 °C in case of the other bacterial species. […] Cell growth was monitored by measuring the optical density (OD600 value, Biotek Synergy 2 microplate reader was used for this purpose). […] Relative MIC was calculated as follows: MICrelative = MICevolved/MICcontrol.

The mark [3] stands for this setting: BW25113, Replicate 1, read-out: MIC value of E. coli K-12 BW25113 carrying the empty plasmid of the ASKA library.
Where [4] appears, read: BW25113, Replicate 1, read-out: MIC value of E. coli K-12 BW25113 carrying the pooled plasmids of the ASKA library.
The mark [5] stands for this setting: BW25113, Replicate 2, read-out: MIC value of E. coli K-12 BW25113 carrying the empty plasmid of the ASKA library.
[6] abbreviates: BW25113, Replicate 2, read-out: MIC value of E. coli K-12 BW25113 carrying the pooled plasmids of the ASKA library.
Setting [7] is: BW25113, Replicate 3, read-out: MIC value of E. coli K-12 BW25113 carrying the empty plasmid of the ASKA library.
Setting [8] is: BW25113, Replicate 3, read-out: MIC value of E. coli K-12 BW25113 carrying the pooled plasmids of the ASKA library.
[9] abbreviates: Escherichia coli, BW25113, 24 h, read-out: MIC.
Where [10] appears, read: starting wild-type strain of the evolution experiment, broth dilution, MS medium, 5 × 10^5 cells/mL, 30 °C, 24 h, MIC = OD600 < 0.05.

These results are taken from paper PMC6778101 (Nature Communications, 2019).

Where two headings read alike, the source gives them in different places. Ends that are not written are not given here.

`C[C@H]1c2cccc(O)c2C(=O)C2=C(O)[C@]3(O)C(=O)C(C(N)=O)=C(O)[C@@H](N(C)C)[C@@H]3[C@@H](O)[C@@H]21` [DOX, Doxycycline]: the MIC in assay [1] (setting [3]) worked out at 0.56 µg/mL; in assay [1] (setting [4]) it was 1.59 µg/mL; in assay [1] (setting [5]), 0.43 µg/mL; in assay [1] (setting [6]), 1.59 µg/mL; in assay [1] (setting [7]), 0.56 µg/mL; in assay [1] (setting [8]), 1.59 µg/mL. In addition, the MIC in assay [2] (setting [9]) amounted to 1.5 µg/mL.

Regarding `CC[C@H]1OC(=O)[C@H](C)[C@@H](O[C@H]2C[C@@](C)(OC)[C@@H](O)[C@H](C)O2)[C@H](C)[C@@H](O[C@@H]2O[C@H](C)C[C@H](N(C)C)[C@H]2O)[C@](C)(O)C[C@@H](C)C(=O)[C@H](C)[C@@H](O)[C@]1(C)O` [ERY, Erythromycin], the MIC was 11 µg/mL in assay [1] (setting [3]); 18.6 µg/mL in assay [1] (setting [4]); 14.3 µg/mL in assay [1] (setting [5]); 24.1 µg/mL in assay [1] (setting [6]); 14.3 µg/mL in assay [1] (setting [7]); 24.1 µg/mL in assay [1] (setting [8]).

With `CO[C@@]1(NC(=O)Cc2cccs2)C(=O)N2C(C(=O)O)=C(COC(N)=O)CS[C@@H]21` [FOX, Cefoxitin], the MIC turned out to be 6.07 µg/mL in assay [1] (setting [3]); 69.2 µg/mL in assay [1] (setting [4]); 6.07 µg/mL in assay [1] (setting [5]); 69.2 µg/mL in assay [1] (setting [6]); 6.07 µg/mL in assay [1] (setting [7]); 69.2 µg/mL in assay [1] (setting [8]). Besides, the MIC in assay [2] (setting [9]) was determined as 4.9 µg/mL.

Turning to `CCn1cc(C(=O)O)c(=O)c2ccc(C)nc21` [NAL, Nalidixic acid], the MIC in assay [1] (setting [3]) turned out to be 0.37 µg/mL; in assay [1] (setting [4]) it was 1.05 µg/mL; in assay [1] (setting [5]) it was 0.37 µg/mL; in assay [1] (setting [6]) it was 1.05 µg/mL; in assay [1] (setting [7]) it was 0.37 µg/mL; in assay [1] (setting [8]), 1.05 µg/mL. The MIC in assay [2] (setting [9]) was 6.35 µg/mL.

In the case of `O=C1CN(/N=C/c2ccc([N+](=O)[O-])o2)C(=O)N1` [NIT, Nitrofurantoin], the MIC in assay [1] (setting [3]) was determined as 6.53 µg/mL; in assay [1] (setting [4]), 14.7 µg/mL; in assay [1] (setting [5]), 6.53 µg/mL; in assay [1] (setting [6]), 14.7 µg/mL; in assay [1] (setting [7]), 6.53 µg/mL; in assay [1] (setting [8]), 6.53 µg/mL. The MIC in assay [2] (Escherichia coli, BW25113, 24 h) was determined as 35 µg/mL.

Consider `CN(C)[C@@H]1C(O)=C(C(N)=O)C(=O)[C@@]2(O)C(O)=C3C(=O)c4c(O)cccc4[C@@](C)(O)[C@H]3C[C@@H]12` [TET, Tetracycline], for which the MIC in assay [1] (setting [3]) is 0.62 µg/mL; in assay [1] (setting [4]) it was 1.29 µg/mL; in assay [1] (setting [5]), 0.62 µg/mL; in assay [1] (setting [6]), 1.07 µg/mL; in assay [1] (setting [7]), 0.62 µg/mL; in assay [1] (setting [8]), 1.07 µg/mL. Further, the MIC in assay [2] (setting [9]) turned out to be 1.2 µg/mL.

Turning to FLGKVFKLASKVFKAVFGKV [R8], the “MIC value of E. coli K-12 BW25113 carrying the empty plasmid of the ASKA library” value in assay [1] (Replicate 1), in assay [1] (Replicate 2) and in assay [1] (Replicate 3) was 11.57 µg/mL each time. Moreover, the results for the “MIC value of E. coli K-12 BW25113 carrying the pooled plasmids of the ASKA library” value in assay [1] (Replicate 1), in assay [1] (Replicate 2) and in assay [1] (Replicate 3) were 11.57 µg/mL, 11.57 µg/mL and 9.46 µg/mL, respectively. The MIC in assay [2] (setting [10]) came out at 20 µg/mL.

Regarding “GLRKRLRKFRNKIKEKLKKIGQKIQGFVPKLAPRTDY [CAP18, rabbit CAP18]”, the “MIC value of E. coli K-12 BW25113 carrying the empty plasmid of the ASKA library” value amounted to 24.11 µg/mL in assay [1] (Replicate 1), 20.09 µg/mL in assay [1] (Replicate 2) and 24.11 µg/mL in assay [1] (Replicate 3). In addition, the “MIC value of E. coli K-12 BW25113 carrying the pooled plasmids of the ASKA library” value in assay [1] (Replicate 1), in assay [1] (Replicate 2) and in assay [1] (Replicate 3) was 24.11 µg/mL each time. Also, the MIC in assay [2] (setting [10]) was found to be 120 µg/mL.

For the molecule “RRRPRPPYLPRPRPPPFFPPRLPPRIPPGFPPRFPPRFP [PR39]”, the “MIC value of E. coli K-12 BW25113 carrying the empty plasmid of the ASKA library” value in assay [1] (Replicate 1), in assay [1] (Replicate 2) and in assay [1] (Replicate 3) was 5.79 µg/mL in each case. Besides, the “MIC value of E. coli K-12 BW25113 carrying the pooled plasmids of the ASKA library” value in assay [1] (Replicate 1), in assay [1] (Replicate 2) and in assay [1] (Replicate 3) was 5.79 µg/mL throughout. In assay [2] (setting [10]), the MIC was determined as 5 µg/mL.
